Reference: patent US20210154170A1, “METHODS OF TREATING NEUROPATHIC PAIN” (Biogen MA Inc., priority 2018, published 2021)

Columns and labels:
[1] = Free fraction of Example 1 in plasma; format: in vitro ADME; conditions: human
[2] = system: rat model of inflammation (mechanical hypersensitivity); format: in vivo
Protocol: For all doses, the C Trough is higher than efficacious doses in animal model of inflammation. […] FCA1, an oral dose of 1 mg/kg was the minimal effective dose in this model. TGN (trigeminal neuralgia), PLSR (painful lumbosacral radiculopathy).
In this model, inflammation was induced by intraplantar injection of Freud Complete Adjuvant.
Mechanical hypersensitivity was then assessed using weight bearing.

[3] = system: healthy participants; experiment: Phase 1 ABPM study, safety (adverse events, ECG); format: in vivo, human
Protocol: This was a Phase 1, randomized, double-blind, placebo-controlled, repeat dose, 2-period cross-over study to investigate the effect of BIIB074 300-400 mg bid on ambulatory blood pressure (ABP) in healthy participants (FIG. 2). The study comprised: screening (to occur a maximum of 30 days before the first baseline assessment); two 36-day treatment periods, each preceded by a baseline visit and separated by a 7-day washout (to minimize possible carry over effects); and a follow-up period of 7-14 days after last dose. Prior to this study, no females had received BIIB074; for this reason, a single dose BIIB074 session at the dose level of 400 mg was also conducted in female participants one week prior to the period 1 baseline visit. Following this session, some participants were predicted to exceed the predefined PK limit (area under the plasma concentration-time curve [AUC] 97 μg·h/mL) when receiving 400 mg bid at steady state. Therefore, in the subsequent phases of the study, all female participants received a lower dose of 300 mg bid (males received 400 mg bid).
Safety was assessed through monitoring of adverse events (AEs), vital signs, electrocardiogram (ECG), and laboratory safety tests (including clinical chemistry).
The safety population was the primary analysis population for this study and included all participants who received one or more doses of BIIB074. The PK population was defined as participants in the safety population for whom a PK sample was obtained and analyzed.

[4] = system: healthy subjects; experiment: Phase 1 valproic acid interaction study, safety and tolerability
Excerpt: • To evaluate the safety and tolerability of BIIB074 when administered alone and when coadministered with the UGT inhibitor valproic acid. • The endpoints that relate to this objective are the incidence of adverse events (AEs) and serious adverse events (SAEs), and changes in clinical laboratory parameters, vital signs, 12-lead electrocardiograms (ECGs), and Columbia Suicide Severity Rating Scale (C-SSRS) assessments. • To evaluate the effect of the UGT inhibitor valproic acid on the PK of the M13, M14, and M16 metabolites of BIIB074. • The endpoints that relate to this objective are: Cmax, AUCinf, AUClast, Tmax, Tlast, t1/2, and metabolite to parent ratio in AUC (MRAUC) of the M13, M14, and M16 metabolites of BIIB074
1. A single oral dose of BIIB074 administered in the morning on Days 1 and 16 following an 8-hour fast. The Day 16 dose was coadministered with the morning dose of valproic acid. 2. Valproic acid 500 mg TID was administered on Days 8 through 22. The morning dose on Day 16 was coadministered with BIIB074 following an 8-hour fast. 3. Blood samples for BIIB074 and metabolite PK collected predose and through 168 hours postdose on Days 1 through 8 and Days 16 through 23. 4. Single blood samples collected on Days 13 through 15 prior to the morning dose of valproic acid only, in order to determine valproic acid trough levels.

[5] = system: rats; experiment: Tyramine-induced hypertension; format: in vivo, rat; conditions: data not shown
Excerpt: The 36 day treatment duration in this study was rationally designed to determine whether tolerance developed for any potential effects of BIIB074 on SBP or DBP, since BP effects resolved by day 28 in the earlier phase 1 trial. The data from this study show a slight trend towards a decrease in the BP difference between BIIB074 and placebo between day 4 and day 35, although differences were minimal at all time points. […] Thus, the body of evidence, encompassing clinical and preclinical studies, supports safety and minimal effects of BIIB074 on BP/cardiovascular parameters.

[6] = system: trigeminal neuralgia; conditions: TN, 150 mg tid; cited from earlier work
[7] = system: healthy participants; experiment: Phase 1 cross-over study, ambulatory blood pressure monitoring (ABPM); format: in vivo, human; conditions: one-sided 95% CI excluding effect ≥5 mmHg
[8] = 400 mg single dose, females, N = 22
[9] = 300-400 mg bid repeat dosing, N = 54

Which fraction unbound ([1]; listed as 150 mg tid) does the source give for `Cl.NC(=O)[C@@H]1CC[C@H](c2ccc(OCc3ccccc3F)cc2)N1` [Example 1, (5R)-5-(4-{[(2-Fluorophenyl)methyl]oxy}phenyl)-L-prolinamide hydrochloride] here?
Its fraction unbound is 0.032.

What about the fraction unbound ([1]; listed as 200 mg bid) of the same compound?
Its fraction unbound is 0.036.

What about the fraction unbound ([1]; listed as 250 mg tid) of the same compound?
The fraction unbound was 0.032.

And the fraction unbound ([1]; listed as 350 mg bid)?
The fraction unbound was 0.032.

And the “Reversal of mechanical hypersensitivity” value ([2]; 5 mg/kg oral)?
Its value is “fully reversed”.

What about the “Human scaled equivalent total plasma exposure where robust efficacy was observed” value ([2]; rat, in vivo) of the same compound?
Its value is 786 ng/mL.

What about the “Severity of all AEs” value ([3]; 400 mg single dose in females) of the same compound?
Its value is “mild in nature”.

What about the Diarrhoea [3, 8] of the same compound?
The Diarrhoea was 0 n (%).

What about the Dizziness [3, 8] of the same compound?
Its Dizziness is 5 (23) n (%).

And the Fatigue [3, 8]?
The Fatigue was 0 n (%).

What about the Headache [3, 8] of the same compound?
Its Headache is 6 (27) n (%).

What about the “Hypersensitivity (allergy symptoms)” value [3, 8] of the same compound?
Its value is 0 n (%).

And the Nasopharyngitis [3, 8]?
The Nasopharyngitis was 0 n (%).

And the Nausea [3, 8]?
The Nausea was 3 (14) n (%).

And the Oropharyngeal pain [3, 8]?
The Oropharyngeal pain was 0 n (%).

What about the Pain in extremity [3, 8] of the same compound?
Its Pain in extremity is 0 n (%).

What about the “Participants with any AE” value [3, 8] of the same compound?
The value was 12 (55) n (%).

And the Pyrexia [3, 8]?
The Pyrexia was 0 n (%).

And the Rash [3, 8]?
The Rash was 0 n (%).

And the Vomiting [3, 8]?
The Vomiting was 1 (5) n (%).

What about the “AEs of moderate intensity” value ([3]; 300-400 mg bid repeat dose) of the same compound?
Its value is 9 AEs.

And the “AEs of severe intensity” value ([3]; 300-400 mg bid repeat dose)?
Its value is 2 AEs.

What about the Diarrhoea [3, 9] of the same compound?
The Diarrhoea was 1 (2) n (%).

And the Dizziness [3, 9]?
The Dizziness was 6 (11) n (%).

And the Fatigue [3, 9]?
The Fatigue was 2 (4) n (%).

And the “Hypersensitivity (allergy symptoms)” value [3, 9]?
The value was 2 (4) n (%).

What about the Nasopharyngitis [3, 9] of the same compound?
Its Nasopharyngitis is 6 (11) n (%).

And the Nausea [3, 9]?
Its Nausea is 4 (7) n (%).

What about the Oropharyngeal pain [3, 9] of the same compound?
Its Oropharyngeal pain is 2 (4) n (%).

What about the Pain in extremity [3, 9] of the same compound?
Its Pain in extremity is 0 n (%).

And the “Participants with any AE” value [3, 9]?
The value was 25 (46) n (%).

What about the Pyrexia [3, 9] of the same compound?
The Pyrexia was 2 (4) n (%).

What about the Rash [3, 9] of the same compound?
The Rash was 1 (2) n (%).

And the Vomiting [3, 9]?
Its Vomiting is 3 (6) n (%).

What about the Headache ([3]; 300-400 mg bid repeat dosing, N = 54, listed as BIIB074, hydrochloride) of the same compound?
The Headache was 11 (20) n (%).

And the Tolerability ([3]; 300-400 mg bid, 36 days)?
The Tolerability was “well tolerated”.

And the ECG changes ([3]; day 1-35)?
Its ECG changes is “no clinically significant ECG changes”.

What about the “Participants withdrawn due to AEs while on BIIB074” value ([3]; of 60 enrolled) of the same compound?
Its value is 5 participants.

What about the “Serious AEs” value ([3]; whole study) of the same compound?
Its value is “No serious AEs”.

What about the Abdominal pain ([4]; human, in vivo) of the same compound?
Its Abdominal pain is 0 n (%).

What about the Asthenia ([4]; human, in vivo) of the same compound?
The Asthenia was 0 n (%).

What about the Cardiac disorders ([4]; human, in vivo) of the same compound?
Its Cardiac disorders is 0 n (%).

What about the Diarrhoea ([4]; human, in vivo) of the same compound?
Its Diarrhoea is 0 n (%).

And the Dizziness ([4]; human, in vivo)?
Its Dizziness is 0 n (%).

What about the Dyspepsia ([4]; human, in vivo) of the same compound?
Its Dyspepsia is 0 n (%).

What about the “Events leading to drug withdrawal” value ([4]; human, in vivo) of the same compound?
Its value is 0 n (%).

And the “Events leading to study withdrawal” value ([4]; human, in vivo)?
Its value is 0 n (%).

What about the Faeces soft ([4]; human, in vivo) of the same compound?
The Faeces soft was 0 n (%).

And the Gastrointestinal disorders ([4]; human, in vivo)?
Its Gastrointestinal disorders is 1 (3.3) n (%).

What about the “General disorders and administration site conditions” value ([4]; human, in vivo) of the same compound?
Its value is 0 n (%).

And the Glossodynia ([4]; human, in vivo)?
Its Glossodynia is 1 (3.3) n (%).

And the Headache ([4]; human, in vivo)?
The Headache was 1 (3.3) n (%).

What about the Nausea ([4]; human, in vivo) of the same compound?
Its Nausea is 0 n (%).

What about the Nervous system disorders ([4]; human, in vivo) of the same compound?
The Nervous system disorders was 1 (3.3) n (%).

What about the Non-cardiac chest pain ([4]; human, in vivo) of the same compound?
The Non-cardiac chest pain was 0 n (%).

And the “Number of subjects with any event” value ([4]; human, in vivo)?
Its value is 2 (6.7) n (%).

And the Pallor ([4]; human, in vivo)?
Its Pallor is 0 n (%).

And the Palpitations ([4]; human, in vivo)?
The Palpitations was 0 n (%).

And the Pruritus ([4]; human, in vivo)?
The Pruritus was 0 n (%).

What about the Related event ([4]; human, in vivo) of the same compound?
Its Related event is 0 n (%).

And the Related serious event ([4]; human, in vivo)?
Its Related serious event is 0 n (%).

What about the Serious event ([4]; human, in vivo) of the same compound?
The Serious event was 0 n (%).

And the “Severity: Mild” value ([4]; human, in vivo)?
The value was 2 (6.7) n (%).

What about the “Severity: Moderate” value ([4]; human, in vivo) of the same compound?
Its value is 0 n (%).

What about the “Severity: Severe” value ([4]; human, in vivo) of the same compound?
The value was 0 n (%).

What about the “Skin and subcutaneous tissue disorders” value ([4]; human, in vivo) of the same compound?
Its value is 0 n (%).

What about the “TEAEs considered related to BIIB074” value ([4]; human, in vivo) of the same compound?
The value was “No TEAEs were considered related to BIIB074”.

And the Vascular disorders ([4]; human, in vivo)?
The Vascular disorders was 0 n (%).

What about the Vomiting ([4]; human, in vivo) of the same compound?
Its Vomiting is 0 n (%).

What about the Safety conclusion ([4]; in vivo) of the same compound?
The Safety conclusion was “safe and well tolerated”.

What about the Fatal event ([4]; per treatment period) of the same compound?
Its Fatal event is 0 n (%).

What about the “Effects on tyramine-induced hypertension” value [5] of the same compound?
The value was “no effects”.

And the Clinical efficacy [6]?
Its Clinical efficacy is “EFFICACY OBSERVED in TN”.

What about the “Non-inferiority to placebo, inpatient ABPM” value [7] of the same compound?
Its value is “non-inferiority of BIIB074 compared with placebo was demonstrated”.
